Data from patent publication US20100317671A1, “XANTHINE-BASED CYCLIC GMP-ENHANCING RHO-KINASE INHIBITOR INHIBITS PHYSIOLOGICAL ACTIVITIES OF LUNG EPITHELIAL CELL LINE” (KAOHSIUNG MEDICAL UNIVERSITY, priority 2008, published 2010).

How the values were obtained:
ICAM-1 = experiment: Western blotting of lung tissue, OVA-sensitized and -challenged mice; format: in vivo
Text: (§1) Inhaled KMUP-1 can be absorbed into airway and blood flow to increase eNOS and down-regulate Rho-kinase expression by a cGMP-dependent pathway, protecting OVA-sensitized and challenged ICAM-1/VCAM-1 expression-associated cellular adhesion and migration activity of neutrophils.

VCAM-1 = experiment: as above; format: in vivo
Text: as §1

[1] = system: inflammatory cells, vascular and bronchial wall; experiment: Histological analyses of lung, OVA-exposed mice; format: in vivo
Text: Histological analyses show the typical pathologic features of asthma in the OVA-exposed mice. Numerous inflammatory cells including eosinophils are infiltrated around the peri-vascular and peri-bronchial region, compared to control mice. […] After OVA challenge, marked increases in PA wall thickness % are found, compared to controls P<0.01).
OVA-sensitization increases the vascular and bronchial wall thickness, however, treatment with long-term KMUP-1 nebulization prevents these changes. […] MMP-9-immunostaining in peri-bronchial region and the reduced MMP-9-positive cells in bronchiole co-indicate the reduction of migration of infiltrated inflammatory cells.

[2] = Monocrotaline (MCT)-induced pulmonary arterial hypertension, PABP; format: in vivo, male Wistar rats; settings: MCT-treated rats
Description: The rats administered MCT (60 mg/kg) are caused pulmonary artery hypertension on day 21 after the intraperitoneal injection. The KMUP-1HCl salt (2.5 mg/kg), Simvastatin (2.5 mg/kg), KMUP-1-nicotinic acid complex (2.5 mg/kg), KMUP-1-citric acid complex (2.5 mg/kg), KMUP-1-Simvastatinic Acid complex (2.5 mg/kg) and KMUP-1-γ-polyglutamic acid complex (2.5 mg/kg) orally administered, or the KMUP-1-PGI2 complex (0.1 mM) inhaled every day may inhibit the pulmonary arterial blood pressure (PABP) in MCT-treated male Wistar rats.

TGF-β = TGF-β expression, bleomycin-induced lung fibrosis (EIA); format: in vivo, mice; settings: BM 60 mg/kg; drug 2.5 mg/kg oral
Description: The increased amount of the collagen synthesis and the macrophage generation in alveolus may facilitate the formulation of TGF-β, and the expression of TGF-β is deeming as a biomarker of the lung fibrosis. KMUP-1HCl salt (1, 2.5 and 5 mg/kg), the Simvastatin (5 mg/kg), the KMUP-1-nicotinic acid complex (2.5 mg/kg), the KMUP-1-Simvastatinic acid complex (2.5 mg/kg) and KMUP-1-γ-polyglutamic acid complex (2.5 mg/kg) are orally administered to the mice for inhibiting the lung fibrosis induced by TGF-β expression in tracheal lavage solution that resulted from 60 mg/kg BM inhalation (Table 6). The state of the TGF-β expression in the lavage is measured by the enzyme immunoassay (EIA).

Compound	ICAM-1 expression (ICAM-1)	VCAM-1 expression (VCAM-1)	Inflammatory cells in the peri-vascular and peri-bronchiolar regions ([1]; OVA-exposed mice)	Vascular and bronchial wall thickness increased by OVA-sensitization ([1]; long-term nebulization)	Pulmonary arterial blood pressure (PABP), in words ([2]; 2.5 mg/kg orally every day)	PABP ([2]; 2.5 mg/kg/day p.o.) [mmHg]	The changing amount of TGF-β in the lung tissue (TGF-β) [%]
Cn1c(=O)c2c(ncn2CCN2CCN(c3ccccc3Cl)CC2)n(C)c1=O [KMUP-1, 7-[2-[4-(2-chlorobenzene)piperazinyl]ethyl]-1,3-dimethylxanthine]	suppressing	suppressing	marked reductions	prevents	–	–	–
CCC(C)(C)C(=O)O[C@H]1C[C@@H](C)C=C2C=C[C@H](C)[C@H](CC[C@@H](O)C[C@@H](O)CC(=O)O)[C@H]21.Cn1c(=O)c2c(ncn2CCN2CCN(c3ccccc3Cl)CC2)n(C)c1=O [KMUP-5]	–	–	–	–	inhibit	12 ± 1.3	45 ± 4.5
